# Reference: article PMC8793051 (ACS Omega, 2022)
# Legend:
# [1] = test system: oligo-1: d(CGCGAATTCGCG)2; test: UV thermal denaturation; format: binding
# [2] = test system: oligo-1: d(CGCGAATTCGCG)2; test: Fluorescence titration; format: binding; settings: 20 °C, pH 7.2
# [3] = test system: oligo-2: d(CGATGTACATCG)2; test: Fluorescence titration; format: binding; settings: 20 °C, pH 7.2
# [4] = test system: HEK; test: MTT cytotoxicity assay; format: cell-based; settings: Homo sapiens, HEK293, 48 h
# [5] = test system: CCRF-CEM; test: NCI-60 SRB growth assay; format: cell-based, human
# [6] = test system: K-562; test: NCI-60 SRB growth assay; format: cell-based, human
# [7] = test system: SR; test: NCI-60 SRB growth assay; format: cell-based, human; settings: Homo sapiens
# [8] = test system: EKVX; test: NCI-60 SRB growth assay; format: cell-based, human
# [9] = test system: HOP-62; test: NCI-60 SRB growth assay; format: cell-based, human
# [10] = test system: HOP-92; test: NCI-60 SRB growth assay; format: cell-based, human
# [11] = test system: NCI-H226; test: NCI-60 SRB growth assay; format: cell-based, human
# [12] = test system: HCC-2998; test: NCI-60 SRB growth assay; format: cell-based, human
# [13] = test system: SW-620; test: NCI-60 SRB growth assay; format: cell-based, human
# [14] = test system: SF-268; test: NCI-60 SRB growth assay; format: cell-based, human
# [15] = test system: SF-539; test: NCI-60 SRB growth assay; format: cell-based, human
# [16] = test system: U251; test: NCI-60 SRB growth assay; format: cell-based, human
# [17] = test system: LOX IMVI; test: NCI-60 SRB growth assay; format: cell-based, human
# [18] = test system: MDA-MB-435; test: NCI-60 SRB growth assay; format: cell-based, human
# [19] = test system: SK-MEL-2; test: NCI-60 SRB growth assay; format: cell-based, human; settings: SK-MEL-2
# [20] = test system: UACC-257; test: NCI-60 SRB growth assay; format: cell-based, human
# [21] = test system: UACC-62; test: NCI-60 SRB growth assay; format: cell-based, human
# [22] = test system: NCI/ADR-RES; test: NCI-60 SRB growth assay; format: cell-based, human
# [23] = test system: 786-0; test: NCI-60 SRB growth assay; format: cell-based, human
# [24] = test system: A498; test: NCI-60 SRB growth assay; format: cell-based, human
# [25] = test system: CAKI-1; test: NCI-60 SRB growth assay; format: cell-based, human
# [26] = test system: SN12C; test: NCI-60 SRB growth assay; format: cell-based, human
# [27] = test system: PC-3; test: NCI-60 SRB growth assay; format: cell-based, human
# [28] = test system: MCF7; test: NCI-60 SRB growth assay; format: cell-based, human
# [29] = test system: MDA-MB-231/ATCC; test: NCI-60 SRB growth assay; format: cell-based, human
# [30] = test system: HS 578T; test: NCI-60 SRB growth assay; format: cell-based, human; settings: HS578T
# [31] = test system: BT-549; test: NCI-60 SRB growth assay; format: cell-based, human
# [32] = test system: MDA-MB-468; test: NCI-60 SRB growth assay; format: cell-based, human
# [33] = test system: HL-60(TB); test: cells; settings: Homo sapiens
# [34] = test system: panel of 60 human cancer cell lines; test: cells; settings: read-out: GI50 concentration range
smiles,measurement,setting,value
"CCCN1CCN(c2ccc3[nH]c(-c4ccc5[nH]c(-c6ccc(OCC)c(OCC)c6)nc5c4)nc3c2)CC1 [11a, 2-(2-(3,4-Diethoxyphenyl)-1H-benzo[d]imidazol-5-yl)-5-(4-propylpiperazin-1-yl)-1H-benzo[d]imidazole]",ΔTm,[1]; r = 0.5,3 °C
same,Tm,"[1]; r = 0.5, oligo 2.5 μM",57.7 °C
same,Tm,[1]; r = 1,58.7 °C
same,ΔTm,[1]; r = 1,4 °C
same,Tm,[1]; r = 1.5,60.7 °C
same,ΔTm,[1]; r = 1.5,6 °C
same,Tm,[1]; r = 2.0,62.7 °C
same,ΔTm,[1]; r = 2.0,8 °C
same,Ka binding affinity with oligo-1,[2],3 × 10^7 M^–1
same,Ka binding affinity with oligo-2,[3],5 × 10^6 M^1
same,IC50,[4],14400 nM
same,TGI,[5],3600 nM
same,GI50,[5]; Homo sapiens,400 nM
same,CC50,"[5]; Homo sapiens, read-out: LC50",> 100000 nM
same,GI50,"[6]; Homo sapiens, K562",310 nM
same,TGI,[6]; K-562,1500 nM
same,GI50,[7],290 nM
same,CC50,[7]; read-out: LC50,> 100000 nM
same,TGI,[8],13300 nM
same,GI50,[8]; Homo sapiens,1730 nM
same,CC50,"[8]; Homo sapiens, read-out: LC50",> 100000 nM
same,TGI,[9]; HOP-62,5200 nM
same,GI50,"[9]; Homo sapiens, HOP-62",1980 nM
same,CC50,"[9]; Homo sapiens, HOP-62, read-out: LC50",23400 nM
same,TGI,[10]; HOP-92,4500 nM
same,GI50,"[10]; Homo sapiens, HOP-92",1200 nM
same,CC50,"[10]; Homo sapiens, HOP-92, read-out: LC50",26300 nM
same,GI50,"[11]; Homo sapiens, NCI-H226",800 nM
same,CC50,"[11]; Homo sapiens, NCI-H226, read-out: LC50",37500 nM
same,TGI,[11]; NCI–H226,3500 nM
same,TGI,[12]; HCC-2998,2620 nM
same,GI50,"[12]; Homo sapiens, HCC 2998",1240 nM
same,CC50,"[12]; Homo sapiens, HCC 2998, read-out: LC50",5500 nM
same,GI50,"[13]; Homo sapiens, SW-620",300 nM
same,CC50,"[13]; Homo sapiens, SW-620, read-out: LC50",4300 nM
same,TGI,[13]; SW620,1200 nM
same,GI50,"[14]; Homo sapiens, SF-268",1900 nM
same,CC50,"[14]; Homo sapiens, SF-268, read-out: LC50",68800 nM
same,TGI,[14]; SF-268,11500 nM
same,GI50,"[15]; Homo sapiens, SF-539",790 nM
same,CC50,"[15]; Homo sapiens, SF-539, read-out: LC50",4800 nM
same,TGI,[15]; SF-539,2100 nM
same,GI50,"[16]; Homo sapiens, U-251",420 nM
same,CC50,"[16]; Homo sapiens, U-251, read-out: LC50",4800 nM
same,TGI,[16]; U251,1800 nM
same,TGI,[17],440 nM
same,GI50,[17]; Homo sapiens,200 nM
same,CC50,"[17]; Homo sapiens, read-out: LC50",960 nM
same,GI50,"[18]; Homo sapiens, MDA-MB-435",670 nM
same,CC50,"[18]; Homo sapiens, MDA-MB-435, read-out: LC50",4500 nM
same,TGI,[18]; MDA-MB-435,1900 nM
same,GI50,[19]; Homo sapiens,14000 nM
same,TGI,[19],3100 nM
same,GI50,"[20]; Homo sapiens, UACC-257",790 nM
same,CC50,"[20]; Homo sapiens, UACC-257, read-out: LC50",9400 nM
same,TGI,[20]; UACC-257,2800 nM
same,GI50,"[21]; Homo sapiens, UACC-62",400 nM
same,CC50,"[21]; Homo sapiens, UACC-62, read-out: LC50",5300 nM
same,TGI,[21]; UACC-62,1900 nM
same,TGI,[22],>100000 nM
same,GI50,[22]; Homo sapiens,> 100000 nM
same,CC50,"[22]; Homo sapiens, read-out: LC50",> 100000 nM
same,TGI,[23]; 786–0,2500 nM
same,GI50,"[23]; Homo sapiens, 786-0",1130 nM
same,CC50,"[23]; Homo sapiens, 786-0, read-out: LC50",5540 nM
same,TGI,[24]; A498,1790 nM
same,GI50,"[24]; Homo sapiens, A498",470 nM
same,CC50,"[24]; Homo sapiens, A498, read-out: LC50",4380 nM
same,TGI,[25]; CAKI-1,3030 nM
same,GI50,"[25]; Homo sapiens, CAKI-1",1040 nM
same,CC50,"[25]; Homo sapiens, CAKI-1, read-out: LC50",8800 nM
same,GI50,"[26]; Homo sapiens, SN12C",450 nM
same,CC50,"[26]; Homo sapiens, SN12C, read-out: LC50",6750 nM
same,TGI,[26]; SN12c,2060 nM
same,GI50,"[27]; Homo sapiens, PC-3",380 nM
same,CC50,"[27]; Homo sapiens, PC-3, read-out: LC50",6120 nM
same,TGI,[27]; PC-3,1920 nM
same,TGI,[28],1530 nM
same,GI50,[28]; Homo sapiens,350 nM
same,GI50,"[29]; Homo sapiens, MDA-MB-231",1380 nM
same,CC50,"[29]; Homo sapiens, MDA-MB-231, read-out: LC50",6780 nM
same,TGI,[29]; MDA-MB-231,3060 nM
same,TGI,[30],>100000 nM
same,TGI,[31]; BT-549,2720 nM
same,GI50,"[31]; Homo sapiens, BT-549",1220 nM
same,CC50,"[31]; Homo sapiens, BT-549, read-out: LC50",6070 nM
same,GI50,"[32]; Homo sapiens, MDA-MB-468",430 nM
same,CC50,"[32]; Homo sapiens, MDA-MB-468, read-out: LC50",7070 nM
same,TGI,[32]; MDA-MB-468,1820 nM
same,GI50,[33]; HL-60,370 nM
same,CC50,"[33]; HL-60, read-out: LC50",> 100000 nM
same,GI50,[34],160 to 3600 nM
